Experimental data published in US11026972B2, “Methods for generating macrophages with enhanced cancer phagocytosis” (Georgia State University Research Foundation, Inc., priority 2016, dated 2021).
Blank lines part the entries; values can stand above or below the molecule they belong to.

Tests used:
[1] = system: PEMs; test: Activated PEM phagocytosis toward RBCs in the presence of antibodies/inhibitors against phagocytic receptors; assay type: cell-based, mouse; settings: antibodies 10 μg/mL; BLT1 5 μM; laminarin 100 μg/mL; heparin 40 U/mL
Experimental: FIGS. 6A-6D include data related to our investigation of possible phagocytic receptors on macrophages for phagocytosing healthy self-cells. […] PEMs, with or without (ctl.) treatment with LPS, IL-17, IL-6, or PMA, were labeled for cell surface LRP1 and CRT followed by FACS. […] Activated PEM phagocytosis toward RBCs was tested in the presence of antibodies against SR-A, Fc receptor Cd16/32 (10 μg/mL of each), inhibitors against SR-B (BLT1, 5 μM), dectin (laminarin, 100 μg/mL), complement (heparin, 40 U/mL), and antibody against Cd11b (10 μg/mL). […] Data presented in each panel represent at least three independent experiments with n≥4, if applicable.
Ex vivo macrophage phagocytosis: Mouse spleens were harvested and minced in cold HBSS followed by passing through nylon meshes. The spleen cells in suspensions were collected by centrifugation followed by washing. After lysis of RBC, splenocytes were plated in cell culture dishes in DMEM with 10% FBS and cultured for 2 h followed by removal of non-adherent cells. The adherent cells, ˜70% being macrophages as determined by anti-F4/80 staining, were tested for phagocytosis. For phagocytosis of RBC or other tissue cells, targeted cells were labeled with CFSE prior to addition into the macrophage-containing wells. Macrophages and target cells, at a ratio of 1:5-10 for RBC or 1:1-2 for other cells, were co-incubated for 30 min at 37° C. followed by gently washing. Macrophage phagocytosis of target cells was then analyzed by fluorescence microscopy and/or by FACS. […] Alternatively, the freshly isolated splenocytes in suspension were incubated with CFSE-labeled RBC and other phagocytic targets for 30 min at 37° C. Macrophage phagocytosis was then determined by FACS after labeling macrophages with anti-F4/80. To test phagocytosis of apoptotic cells, B16 cells were irradiated by UV for 150 seconds at 50 J/m^2 strength. Apoptosis was analyzed at 2, 4, 6, 8 and 18 h post UV irradiation by labeling of the cells with anti-phosphatidylserine (PS) antibody (data not shown) or FITC-conjugated annexin V (data not shown). Cells that were confirmed to be apoptotic were trypsinized, labeled with CFSE, and then co-incubated with macrophages for 30 min at 37° C. After gentle washing, phagocytosis was analyzed by fluorescence microscopy and/or FACS. To test phagocytosis of bacteria and the fungal product zymosan, AlexaFluor-conjugated E.coli strain […] (2 μl suspension, ˜2 μg) or zymosan bioparticles (1 μl suspension, ˜2 μg) (both from Invitrogen) were incubated with macrophages for 30 min followed by washing and analyses. Similar procedures were performed to test phagocytosis of macrophages from various sources. […]

[2] = system: SIRPα^−/− and CD47^−/− mice; test: Acute anemia and splenomegaly in mice deficient of CD47-SIRPα-mediated inhibition under inflammatory conditions; assay type: in vivo, mouse; settings: SIRPα^−/− and CD47^−/− mice; zymosan 3 times every other day; IL-6 2×10 μg/kg i.v.; LPS 0.25 mg/kg i.p.; CFA s.c.
Source text: FIGS. 1A-1K illustrate our assessment of acute anemia in mice deficient of CD47-SIRPα-mediated inhibition under inflammatory conditions. FIG. 1A includes a schematic drawing of a wild type (WT) and targeted allele of SIRPα (“SIRPα”) and data related to the generation of SIRPα “knock out” (KO) mice. […] Western blot (WB) analysis confirmed the depletion of SIRPα (˜120 kDa) protein in bone marrow leukocytes from SIRPα^−/− mice. FIG. 1B includes a photograph of intestinal tissue and a line graph charting the change in body weight of mice in which colitis had been induced by treatment with 1% or 2% DSS. […] FIGS. 1C and 1D include data related to acute anemia and splenomegaly developed in SIRPα^−/− mice with colitis. WT mice and SIRPα^−/− mice treated with DSS (2% DSS for WT and 1% DSS for SIRPα^−/−) for 10 days were analyzed for the presence of […] (FIG. 1C) and the content of hemoglobin in peripheral blood (FIG. 1D). FIG. 1E includes a panel of photomicrographs in which hematoxylin and eosin (H&E) was used to stain sections of spleens from WT and SIRPα^−/− mice treated with 2% and 1% DSS for 10 days. The bar graph of FIG. 1E illustrates the hemoglobin content in the spleens of WT and SIRPα^−/− mice treated with water or DSS. FIG. 1F is a pair of line graphs showing the time course over which anemia developed in SIRPα^−/− mice when colitis was induced with DSS and the levels of IL-17 in the serum over that same period of time. FIG. 1G is a diagram showing that IL-17 neutralization ameliorates anemia and splenomegaly in SIRPα^−/− mice with colitis. An anti-IL-17 antibody (10 μg, i.v.) was given on days 6 and 8 (arrows) during DSS-induction of colitis. FIG. 1H is a diagram showing that IL-17-containing colitic serum induces acute anemia in SIRPα^−/− mice. Serum samples collected from healthy (Ctl.) and colitic WT mice (2% DSS, 10 d) were administered to healthy SIRPα^−/− mice (i.v., 3×, arrows) with or without an anti-IL-17 antibody. FIGS. 1I and 1J are illustrative graphs showing that IL-17 directly induces acute anemia and splenomegaly in SIRPα^−/− mice and Cd47^−/− mice. Healthy mice were given recombinant IL-17 (10 μg/kg, i.v.) on days 1 and 3 (arrows, FIG. 1J); anemia and splenomegaly were analyzed on day 5 (FIG. 1I) or in a time course manner (FIG. 1J). FIG. 1K includes diagrams showing that acute anemia and splenomegaly in SIRPα^−/− and Cd47^−/− mice under zymosan-peritonitis (3×, every other day), IL-6 administration ([…], i.v.), LPS (0.25 mg/kg, i.p.), and CFA (1×, s.c.) administrations. Error bars are ±SEM **P<0.01, ***P<0.001 vs. control or the beginning time point. Data presented in each panel represent at least three independent experiments with n≥4, if applicable.
Hemoglobin assay: To assay blood hemoglobin, 10 μl of whole blood were obtained from the tail vein followed by lysis in 1 ml distilled water. After centrifugation (13,000 rpm, 30 min), the hemoglobin-containing supernatants were collected and measured for the optical density at the wavelength of 540 nm.
Animal inflammation models: To induce peritonitis, mice (6-8 wk, 20-22 g) were intraperitoneally injected with 0.5 mg zymosan A (Sigma) in 0.5 ml sterile PBS followed by euthanasia at 2, 4, 6 and 8 hours. […] The colitic condition was then assessed by observing diarrhea, measuring body weight loss, increases of inflammatory cytokines, the shortage of the large intestine and intestinal tissue analyses (after euthanasia). […]

[3] = system: splenic macrophages, PEMs and BMDMs; test: Ex vivo macrophage phagocytosis toward RBCs and other self-cells after activation; assay type: cell-based, mouse; settings: PEM; lack of the CD47-SIRPα-mediated inhibition
Experimental: FIGS. 3A-3H include data related to our experiments assaying macrophage phagocytosis ex vivo. FIGS. 3A and 3B show macrophage phagocytosis of RBCs. Freshly isolated splenic macrophages (MØ) and peritoneal macrophages (PEM) and in vitro-derived BMDM (bone marrow-derived macrophages) were tested for phagocytosis toward CFSE-labeled Cd47^+ or Cd47^− RBCs. […] FIGS. 3F and 3G illustrate LPS and IL-17-activated PEM phagocytosis toward splenocytes (FIG. 3F), B16, and EL4 (FIG. 3G). Error bars are ±SEM. **P<0.01, ***P<0.001 vs. no treatment controls. […] PEM lavaged without (ctl.) or with Brewer thioglycollate (3%, i.p.) elicitation was tested. Error bars are ±SEM. ***P<0.001 vs. control PEM. Data presented in each panel represent at least three independent experiments with n≥4, if applicable.
FIGS. 4A-4E include data related to our experiments on macrophage phagocytic plasticity. FIG. 4A is a panel of illustrative line graphs showing that IL-10 inhibits macrophage phagocytosis toward “self.” PEMs were treated with LPS and activating cytokines along with various concentrations of IL-10 before testing their ability to phagocytose RBCs. FIG. 4B illustrates the phagocytic plasticity of WT red pulp macrophages. […] Treatments of cultured macrophages with LPS and IL-17 re-elicited their phagocytosis toward RBCs. […] Error bars are ±SEM. ***P<0.001 vs. freshly isolated splenic macrophages. FIG. 4D includes microscopic images of RBC phagocytosis by LPS- and IL-17-treated splenic macrophages. […] WT PEMs treated with LPS or IL-17 were further treated with Cd47^+ RBCs or Cd47-AP (10 min, 37° C.) followed by cell lysis, SIRPα immunoprecipitation, and WB detection of SIRPα phosphorylation (SIRPα^pY) and SHP-1 association. Data presented in each panel represent at least three independent experiments with n≥4, if applicable.
Ex vivo macrophage phagocytosis: Mouse spleens were harvested and minced in cold HBSS followed by passing through nylon meshes. The spleen cells in suspensions were collected by centrifugation followed by washing. After lysis of RBC, splenocytes were plated in cell culture dishes in DMEM with 10% FBS and cultured for 2 h followed by removal of non-adherent cells. The adherent cells, ˜70% being macrophages as determined by anti-F4/80 staining, were tested for phagocytosis. For phagocytosis of RBC or other tissue cells, targeted cells were labeled with CFSE prior to addition into the macrophage-containing wells. Macrophages and target cells, at a ratio of 1:5-10 for RBC or 1:1-2 for other cells, were co-incubated for 30 min at 37° C. followed by gently washing. Macrophage phagocytosis of target cells was then analyzed by fluorescence microscopy and/or by FACS. To better recognize macrophages, macrophages in wells were labeled with an anti-F4/80 or an anti-CD11b antibody. Alternatively, the freshly isolated splenocytes in suspension were incubated with CFSE-labeled RBC and other phagocytic targets for 30 min at 37° C. Macrophage phagocytosis was then determined by FACS after labeling macrophages with anti-F4/80. To test phagocytosis of apoptotic cells, B16 cells were irradiated by UV for 150 seconds at 50 J/m^2 strength. Apoptosis was analyzed at 2, 4, 6, 8 and 18 h post UV irradiation by labeling of the cells with anti-phosphatidylserine (PS) antibody (data not shown) or FITC-conjugated annexin V (data not shown). Cells that were confirmed to be apoptotic were trypsinized, labeled with CFSE, and then co-incubated with macrophages for 30 min at 37° C. After gentle washing, phagocytosis was analyzed by fluorescence microscopy and/or FACS. To test phagocytosis of bacteria and the fungal product zymosan, AlexaFluor-conjugated E.coli strain […] (2 μl suspension, ˜2 μg) or zymosan bioparticles (1 μl suspension, ˜2 μg) (both from Invitrogen) were incubated with macrophages for 30 min followed by washing and analyses. Similar procedures were performed to test phagocytosis of macrophages from various sources. […]

LPS-induced PEM phagocytosis toward RBCs [1]: failed to affect
Molecule: CCCCCCC1CCCC1=NNC(N)=S (centres unmarked) [BLT1]

LPS-induced PEM phagocytosis toward RBCs [1]: failed to affect
Molecule: heparin

LPS-induced PEM phagocytosis toward RBCs [1]: failed to affect
Molecule: laminarin

B1: IL-6: recombinant murine cytokine, PeproTech (protein, UniProt P08505 25-211, looked up)
Interleukin-6: FPTSQVRRGDFTEDTTPNRPVYTTSQVGGLITHVLWEIVEMRKELCNGNSDCMNNDDALAENNLKLPEIQRNDGCYQTGYNQEICLLKISSGLLEYHSYLEYMKNNLKDNKKDKARVLQRDTETLIHIFNQEVKDLHKIVLPTPISNALLTDKLESQKEWLRTKTIQFILKSLEEFLKVTLRSTRQT
anemia and splenomegaly [2]: induced the same result
ability to induce macrophage phagocytosis toward self [3]: have the ability to induce macrophage phagocytosis toward self
